Results from the METLIN SMRT retention time set (Domingo-Almenara et al. 2019).

assay: gradient 5% acetonitrile 3 min, to 50% in 2 min, to 85% in 15 min, held 3 min, 100 µL/min; settings: column: Zorbax Extend-C18 2.1 x 50 mm; eluents: water / acetonitrile, 0.1% formic acid
How it was run: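 The system's dead and dwell volumes were 40 μL and 900 μL, with a Zorbax Extend-C18 column (2.1 × 50 mm, 1.8 μm) run at 100 μL/min in water and acetonitrile containing 0.1% formic acid each. Pure standards were analyzed in mixtures of ~100 molecules by HPLC–quadrupole time-of-flight mass spectrometry in positive and negative ionization mode. Retention time was assigned from computationally picked, manually inspected adduct peaks.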

| Structure (SMILES) | RP-LC retention time [s] |
| --- | --- |
| CN(C)C(CNC(=O)Nc1ccccc1Cl)c1cn(C)c2ccccc12 (centres undefined) | 589 |
| CN(C)CCCn1c2c3ccccc3ccc2c2oc(=O)c3ccccc3c21 | 802 |
| CCc1cccc(Nc2nc3ccncc3n(Cc3ccccc3)c2=O)c1 | 742 |
| COc1ccc(NS(=O)(=O)c2ccc(/C=C\c3onc(C)c3NC(C)=O)cc2)c(OC)c1 | 777 |
| O=S(=O)(Nc1cccn2c(C3CCC3)nnc12)c1cccc2nsnc12 | 719 |
| CC(C)N(C(=O)Cn1c(C2CC(=O)N(C(C)(C)C)C2)nc2ccccc21)c1ccccc1 (centres undefined) | 702 |
| NC(=O)C1CCN(C(=O)Cc2csc(NC(=O)Nc3ccccc3)n2)CC1 | 622 |
| O=C(Cn1ncc2c(N3CCN(c4ccccn4)CC3)ncnc21)Nc1ccc(C(F)(F)F)cc1 | 669 |
| O=C(CCc1c[nH]c2ccccc12)N1CC(n2ccnc2)C1 | 588 |
| CCCC(NC(=O)c1cccc(F)c1)C(=O)Nc1nc2ccccc2[nH]1 (centres undefined) | 693 |
| CC(C)n1c(=O)c2ccccc2n(Cc2nc(-c3cccc(Cl)c3)no2)c1=O | 1190 |
| O=C(NCc1cccs1)c1ccc2c(c1)N(C(=O)c1ccc(F)cc1)CC2 | 880 |
| CC(=O)Nc1ccc(NC(=O)c2cccc(N3C(=O)NC4CC3(C)Oc3ccc(Cl)cc34)c2)cc1 (centres undefined) | 754 |
| COc1ccc(S(=O)(=O)N2CCCC(C(=O)Nc3cccc(SC)c3)C2)cc1Cl (centres undefined) | 1060 |
| CCc1nc(OCC(=O)Nc2ccccc2Br)c2ccccc2n1 | 827 |
| CN(C)CCNC(=O)C1CCN(c2nccnc2Sc2ccccc2)CC1 | 629 |
| CC1=C(c2ccccc2)S(=O)(=O)N=C1N1CCCN(C(=O)c2cccc(C#N)c2)CC1 | 777 |
| O=C(CN1CCN(Cc2ccccc2F)C1=O)NC1CCN(Cc2ccccc2)CC1 | 610 |
| Cc1cnc(C(=O)N2CCCCCCNC(=O)[C@@H]3CCCC[C@@H]32)cn1 | 694 |
| CCc1ccc(NC(=O)NCC2CCOCC2)cc1 | 732 |
| O=C(NCCCN1CCN(Cc2ccccc2)CC1)c1sc2ncccc2c1-n1cccc1 | 646 |
| O=C(Nc1ccc(F)cc1F)C1CCc2nc(N3CCOCC3)ncc2C1 (centres undefined) | 734 |

| Structure (SMILES) | RP-LC retention time [s] |
| --- | --- |
| CCCc1noc(-c2cccnc2-n2cnc(C(=O)Nc3cc(C)cc(C)c3)c2)n1 | 1040 |
| Cc1cccc(-c2[nH]c(C(C)(C)C)nc2-c2ccc3nccnc3c2)n1 | 659 |
| CCCn1c(=O)c2c(ncn2C)n(CCC)c1=O | 785 |
| O=C(Cn1c(=O)oc2ccccc21)N1CCc2nn(CC3CC3)c(=O)n2CC1 | 682 |
| O=C(NCCCn1nc(-c2cccnc2)ccc1=O)c1ccc(F)cc1F | 569 |
| CCCn1cc(S(=O)(=O)NCc2ccccc2C)c2cccnc21 | 946 |
| Cc1nnc2ccc(S(=O)(=O)Nc3ccc(F)cc3)cn12 | 670 |
| Cc1sc(NC(=O)c2ccccc2)nc1-c1ccc2c(c1)NC(=O)C(C)O2 (centres undefined) | 931 |
| O=C(c1cc(Cl)ccc1F)N1CCC2(CC1)NC(=O)N(Cc1ccc(F)cc1)C2=O | 852 |
| O=C(NCC1CCCO1)c1ccc(Nc2c(-c3ccccc3)nc3cnccn23)cc1 (centres undefined) | 1140 |
| COc1ccc(-c2nc3cc(C)ccc3o2)cc1NC(=O)NCc1ccco1 | 1010 |
| CC1CCN(Cc2nc(Cn3ccn4nc(-c5ccc(F)cc5)cc4c3=O)no2)CC1 | 703 |
| CN(C)S(=O)(=O)c1ccc(C(=O)Nc2sc3c(c2C#N)CC(C)(C)NC3(C)C)cc1 | 574 |
| Clc1ccc(-c2csc(N3CCOCC3)n2)c(Cl)c1 | 1260 |
| CC1=C(c2ccc(C)c(C)c2)S(=O)(=O)N=C1N1CCCN(C(=O)c2cccnc2)CC1 | 788 |
| O=C(Cn1ccn2nc(-c3ccccc3)cc2c1=O)NCc1ccccc1Cl | 817 |
| CCOc1ccccc1CNC(=O)C1CCCN(c2nccnc2Sc2ccccc2)C1 (centres undefined) | 1110 |
| COc1ccc(-c2ccnc3nc(Cc4cc(F)cc(F)c4)nn23)c(F)c1 | 973 |
| O=C1CN(Cc2ccc3c(c2)OCO3)C2CS(=O)(=O)CC2N1c1cccc(Cl)c1 (centres undefined) | 770 |
| CCc1nn2c(CNS(=O)(=O)c3cccc(C)c3)c(-c3ccccc3)nc2s1 | 973 |
| COc1ccc(NC(=O)Cn2nc3cc(C)nc(Nc4cc(C)cc(C)c4)n3c2=O)cc1 | 869 |
| O=C(Nc1ccccc1)N1CCC(N(C(=O)C2CC2)C2CCOCC2)CC1 | 697 |
